Test results taken from US8759308B2, “RNAi probes targeting cancer-related proteins” (The University of British Columbia, priority 2002, dated 2014).
d = 2'-deoxy (DNA); r = 2'-OH (RNA)

Key:
[1] = human, in vivo; cited from earlier work
[2] = test system: KH OS and U-2 OS cells; assay: DXR effects in OS cells (TUNEL, protein expression); format: cell-based, human
Procedure: Sustained silencing of CLU gene expression in OS cells by siRNA results in significant sensitization to apoptosis induced by genotoxic and oxidative stress. Prior to CLU functional assays, we analyzed the DXR effects in OS cells since the drug-related reported effects vary in different cell-types (Gewritz et al., Biochem. Pharmacol. 57: 727-741 (1999)). As the DXR plasma concentration in treated patients fall into a range of 1-2 μM and decline into a range of 0.025-0.25 μM within 1 h (Muller et al, Cancer Chemother. Pharmacol., 32: 379-384 (1993)) cells were treated with 0.35 and 1 μM of DXR. To analyze the extent of the DXR-mediated cell death we scored apoptosis by TUNEL. Attached cells following drug treatment for 24 h underwent significant morphological changes as compared to non-treated control cells. […] On-going apoptosis is also apparent 24 h later, verifying that apoptosis is a dynamic process that continues even after DXR removal from the medium.

[3] = test system: clusterin; assay: Clusterin Western blot in MCF-7 cells; format: cell-based, human; conditions: 5 and 50 nM, three days
Procedure: MCF-7 cells were transfected with various doses (5 and 50 nM) of CLU-5 siRNA or scrambled control. Three days after treatment, proteins were extracted and analyzed by Western blotting for clusterin levels (MW=40 and 60 kDa).

[4] = test system: clusterin transcript; assay: Clusterin mRNA by Northern blot in OVCAR3 cells; format: cell-based, human; conditions: 1, 10 or 50 nM, two days
Procedure: OVCAR3 ovarian cancer cells were treated once with 1, 10 or 50 nM CLU5, scrambled control or a vehicle only control. An untreated control was also run. After two days, total RNA was extracted and analyzed for clusterin and GAPDH mRNA by Northern blot.

[5] = test system: clusterin; assay: Clusterin Western blot in clusterin overexpressing LNCaP/T1 cells; format: cell-based, human; conditions: 10 nM, 1 pulse, three days
Procedure: Clusterin overexpressing LNCaP)/T1 cells were transfected (1 pulse) with 10 nM CLU-5 siRNA or scrambled control. Three days after treatment, the proteins were extracted and analyzed by Western blotting for clusterin.

[6] = test system: clusterin; assay: Clusterin Western blot in PC3 cells; format: cell-based, human; conditions: 10, 50 and 100 nM
Procedure: 8 species of siRNA targeting clusterin were formed as double-stranded RNA from Seq. ID NOs. 1 and 2, 3 and 4, 5 and 6, 7 and 8, 9 and 10, 11 and 12, 13 and 14, and 15 and 16, and labeled as CLU1-CLU 8, respectively. PC3 cells were transfected with various doses (10, 50 and 100 nM) of the 8 species of siRNA or scrambled control. Three days after treatment, proteins were extracted and analyzed by Western blotting for clusterin levels (MW=40 and 60 kDa).
Densitometric measurements were performed after normalization to a vinculin control the blots for cells treated with CLU-5 (Seq ID Nos. 9 and 10). “Oligo” cells were treated with oligoFECTAMINE™ only.

[7] = test system: PC3 cells; assay: PC3 cell viability with siRNA and Taxol, MTT assay; format: cell-based, human; conditions: 25 nM siRNA, then Taxol three days
Procedure: PC3 cells were treated once with 25 nM human clusterin siRNAs (CLU-3 and CLU-5), a scrambled control, or oligoFECTAMINE™ only. After two days of treatment, the medium was replaced with medium containing various concentrations of Taxol (Paclitaxel). After three days of incubation, cell viability was determined by MTT assay. FIG. 11 summarizes the results.

[8] = test system: clusterin transcript; assay: Clusterin transcript by Northern blot in PC3 cells; format: cell-based, human; conditions: all doses (10, 50 or 100 nM), two days
Procedure: PC3 cells were treated (1 pulse) with CLU-3 (Seq ID NOs. 5 and 6) or CLU-5 (Seq ID Nos 9 and 10) or with a scrambled control at levels of 10, 50 or 100 nM, or with oligoFECTAMINE™ only. After two days total RNA was extracted and analyzed for clusterin and GADPH by Northern blotting. Densitometric measurement was performed. FIG. 10 presents results of these measurements after normalization to GADPH.

[9] = test system: clusterin; assay: Clusterin Western blot in A549 cells; format: cell-based, human; conditions: 10, 50 and 100 nM
[10] = test system: clusterin transcript; assay: Clusterin transcript by Real Time PCR in PC3 cells; format: cell-based, human; conditions: 10, 50 or 100 nM, two days
Procedure: (§1) PC3 cells were transfected with siRNA at levels of 10, 50 or 100 nM or with 100 nM scrambled control. Two days after transfection, total RNA was extracted and the level of clusterin transcript was quantified by Real Time PCR.

[11] = test system: clusterin transcript; assay: Clusterin mRNA by Northern blot in MDA-MB 231 cells; format: cell-based, human; conditions: 5, 50 or 100 nM, two days
Procedure: MDA-MB 231 human breast cancer cells were transfected with 5, 50 or 100 nM CLU-5 or a scrambled control, or with oligoFECTAMINE™ vehicle alone. Two days after transfection, RNA was extracted and analyzed for clusterin and GAPDH by Northern blotting.

[12] = test system: clusterin transcript; assay: Clusterin mRNA by Northern blot in MCF-7 cells; format: cell-based, human; conditions: 5, 25 or 50 nM, two days
Procedure: MCF-7 human breast cancer cells were transfected with 5, 25 or 50 nM CLU-5 or a scrambled control, or with oligoFECTAMINE™ vehicle alone. Two days after transfection, RNA was extracted and analyzed for clusterin and GAPDH by Northern blotting.

[13] = test system: clusterin transcript; assay: Clusterin transcript by Real Time PCR in A549 cells; format: cell-based, human; conditions: 10, 50 or 100 nM, two days
Procedure: as §1
The experiment of Example 9 was repeated using A549 cells in place of PC3 cells.

Row | Molecule | plasma concentration [1] | bcl-2 expression ([2]; KH OS and U-2 OS cells) | accumulation of p53, p21 and bax ([2]; OS cell lines) | PARP cleavage ([2]; OS cells after DXR treatment) | apoptosis by TUNEL ([2]; OS cells, 0.35 and 1 μM DXR, 24 h) | amount of clusterin protein relative to scrambled control [3] | amount of clusterin transcript normalized to GAPDH [4] | clusterin detected by Western blot [5] | clusterin by densitometry normalized to vinculin [6] | amount of clusterin (Western blot) ([6]; three days) | viable cells with siRNA plus Taxol [7] | amount of clusterin transcript normalized to GADPH [8] | clusterin by densitometry normalized to vinculin [9] | amount of clusterin transcript [10] | amount of clusterin transcript normalized to GAPDH [11] | amount of clusterin transcript normalized to GAPDH [12] | amount of clusterin transcript [13]
1 | COc1cccc2c1C(=O)c1c(O)c3c(c(O)c1C2=O)C[C@@](O)(C(=O)CO)C[C@@H]3O[C@H]1C[C@H](N)[C@H](O)[C@H](C)O1 [DXR] | 1000 to 2000 nM | no altered expression | found only in U-2 OS cells | accompanied by PARP cleavage | a significant number of them are TUNEL positive | – | – | – | – | – | – | – | – | – | – | – | –
2 | CLU-5: clusterin siRNA, double-stranded RNA from Seq. ID NOs. 9 and 10 (chain 1 AUGAUGAAGACUCUGCUGCTT; chain 2 GCAGCAGAGUCUUCAUCAUTT; sugars from the 5' end r19 d2, backbone not given here) | – | – | – | – | – | reduction in the amount of clusterin protein | Substantial dose dependent reduction | No clusterin was detected | dose dependent response | best results | worked in synergy | Reduction in the amount of clusterin transcript | dose dependent response | reduction in the amount of clusterin transcript | Substantial reduction | Substantial dose-dependent reduction | reduction in the amount of clusterin transcript
